ChEMBL document CHEMBL5325393, “A mini-review on synthesis and antiviral activity of natural product oxetanocin A derivatives” (Bioorg Med Chem, 2022)
pEC50, pIC50: −log10 of the molar value. Converted amounts (≈) assume the structure as drawn.

Experiments:
[1] = test system: Human immunodeficiency virus 2; test: Antiviral activity against HIV-2 D194 infected in PBMC assessed as inhibition of viral replication at 45 microM relative to control; format: functional; conditions: Human immunodeficiency virus 2, D194, PBMC
[2] = test system: Human immunodeficiency virus 1; test: Antiviral activity against HIV-1 III B infected in PBMC assessed as inhibition of viral replication at 100 microM relative to control; format: functional; conditions: Human immunodeficiency virus 1, III B
HUVEC [3] = test: Angiogenic activity against HUVEC cells assessed as relative area of tube formation at 100 uM incubated for 96 hrs by Alexa fluor 488 staining based analysis; format: functional, Homo sapiens
Human alphaherpesvirus 2 [4] = test: Antiviral activity against HSV-2 assessed as inhibition of viral growth; format: functional, organism-based
Human alphaherpesvirus 1 [5] = test: Antiviral activity against HSV-1 assessed as inhibition of viral growth; format: functional, organism-based
[6] = test system: Human immunodeficiency virus 1; test: Antiviral activity against HIV-1 assessed as inhibition of viral replication; format: functional, organism-based
[7] = test system: Human immunodeficiency virus 1; test: Antiviral activity against HIV-1 HTLV-IIIB infected in human MT4 cells assessed as inhibition of viral replication incubated for 4 days by immunofluorescence assay; format: functional, organism-based; conditions: Human immunodeficiency virus 1, HTLV-IIIB, MT4, 96 h
[8] = test system: Human immunodeficiency virus; test: Antiviral activity against HIV RF assessed as inhibition of viral growth; format: functional, organism-based; conditions: Human immunodeficiency virus 1, RF
[9] = test system: Human immunodeficiency virus 1; test: Antiviral activity against HIV-1 HTLV-IIIB infected in human MT4 cells assessed as inhibition of viral replication; format: functional, organism-based; conditions: Human immunodeficiency virus 1, HTLV-IIIB
Human alphaherpesvirus 2 [10] = test: Antiviral activity against HSV-2 assessed as inhibition of cytopathic effect at 5.8 ug per well relative to control; format: functional
[11] = Cytotoxicity against African green monkey Vero cells assessed as inhibition of cell growth at 132.6 microg/ml relative to control; format: toxicity, cell-based; conditions: chlorocebus sabaeus, at 132.6 µg/mL
[12] = test system: Human immunodeficiency virus; test: Antiviral activity against HIV infected in human MT4 cells by plaque reduction assay; format: functional, organism-based; conditions: Human immunodeficiency virus 1, MT4
Human betaherpesvirus 5 [13] = test: Antiviral activity against HCMV assessed as inhibition of viral growth; format: functional, organism-based
Human betaherpesvirus 5 [14] = test: Antiviral activity against HCMV AD169 infected in HELF cells by plaque reduction assay; format: functional, organism-based; conditions: Human betaherpesvirus 5, AD169, HELF
[15] = test system: Human immunodeficiency virus 1; test: Antiviral activity against HIV-1 III B infected in PBMC assessed as inhibition of viral growth; format: functional, organism-based; conditions: Human immunodeficiency virus 1, III B
[16] = test system: Human immunodeficiency virus 2; test: Antiviral activity against HIV-2 D194 infected in PBMC assessed as inhibition of viral growth; format: functional, organism-based; conditions: Human immunodeficiency virus 2, D194, PBMC
HUVEC [17] = test: Angiogenic activity against HUVEC cells assessed as relative area of tube formation at 100 uM incubated for 10 days by tube formation assay; format: functional, Homo sapiens; conditions: time 10 day
Murid betaherpesvirus 1 = test: Antiviral activity against MCMV Smith infected in MEF cells assessed as reduction in plaque formation by plaque reduction assay; format: functional; conditions: Murid betaherpesvirus 1, Smith, read-out: ED50 (the source's name)
Human betaherpesvirus 5 [18] = test: Antiviral activity against HCMV AD169 infected in HEL cells assessed as reduction in virus induced cytopathogenicity by plaque reduction assay; format: functional, organism-based; conditions: Human betaherpesvirus 5, AD169, HEL
Hepatitis B virus = test: Antiviral activity against HBV assessed as inhibition of viral growth; format: functional, organism-based
[19] = test system: Human immunodeficiency virus; test: Antiviral activity against HIV assessed as inhibition of viral growth; format: functional, organism-based; conditions: Human immunodeficiency virus 1
[20] = test system: Human immunodeficiency virus 1; test: Antiviral activity against HIV-1 HTLV-IIIB infected in human MT4 cells assessed as reduction in virus induced cytopathogenicity by immunofluorescence assay; format: functional, organism-based; conditions: Human immunodeficiency virus 1, HTLV-IIIB
Human alphaherpesvirus 2 [21] = test: Antiviral activity against thymidine kinase deficient HSV-2 assessed as inhibition of viral replication by plaque reduction assay; format: functional, organism-based
Human alphaherpesvirus 2 [22] = test: Antiviral activity against HSV-2 186 infected in African green monkey Vero cells assessed as reduction in virus induced cytopathogenicity by plaque reduction assay; format: functional, organism-based; conditions: Human alphaherpesvirus 2, 186, Vero
Human alphaherpesvirus 1 [23] = test: Antiviral activity against thymidine kinase positive HSV-1 123 infected in HFF cells assessed as reduction in viral replication incubated for 3 days by crystal violet staining based microplate reader analysis; format: functional, organism-based; conditions: Human alphaherpesvirus 1, 123, HFF, 72 h
Human alphaherpesvirus 1 [24] = test: Antiviral activity against thymidine kinase positive HSV-1 SC-16 infected in HFF cells assessed as reduction in viral replication incubated for 3 days by crystal violet staining based microplate reader analysis; format: functional, organism-based; conditions: Human alphaherpesvirus 1, SC-16, HFF, 72 h
Human alphaherpesvirus 1 [25] = test: (§1) Antiviral activity against lethal intracerebral HSV-1 123 infected in po dosed Swiss mouse model assessed as increase in animal survival administered as single double strength loading dose at 7 hrs post-inoculation and single strength dose at 23, 31, 47, 55, 71, 79 hrs post-inoculation and monitored for 21 days; format: functional; conditions: time 21 day
Human alphaherpesvirus 1 [26] = test: Antiviral activity against thymidine kinase positive HSV-1 E-377 infected in HFF cells assessed as reduction in viral replication incubated for 3 days by crystal violet staining based microplate reader analysis; format: functional, organism-based; conditions: Human alphaherpesvirus 1, E-377, HFF, 72 h
Human alphaherpesvirus 1 [27] = test: Antiviral activity against HSV-1 KOS infected in African green monkey Vero cells assessed as reduction in virus induced cytopathogenicity by plaque reduction assay; format: functional, organism-based; conditions: Human alphaherpesvirus 1, KOS
Human alphaherpesvirus 1 [28] = test: as §1, with “systemic” for “intracerebral”; format: functional; conditions: time 21 day
Cytomegalovirus = test: Antiviral activity against CMV AD-169 infected in HEL cells assessed as reduction in virus plaque formation; format: functional, organism-based; conditions: Human betaherpesvirus 5, AD-169, HEL
[29] = test system: Human immunodeficiency virus 1; test: Antiviral activity against HIV-1 infected in human CEM cells assessed as inhibition of cytopathogenicity at 400 uM relative to control; format: functional; conditions: Human immunodeficiency virus 1, CCRF-CEM
CEM = test: Inhibition of HIV reverse transcriptase in human CEM cells at 400 uM relative to control; format: cell-based; conditions: Human immunodeficiency virus

In the case of `Nc1nc2c(ncn2[C@H]2C[C@@](F)(CO)C2)c(=O)[nH]1`, the inhibition at 45 µM [1] was 50% and the inhibition at 100 µM [2] was 30%.

Work on `Nc1nc(I)nc2c1ncn2[C@@H]1C[C@H](CO)[C@H]1CO` yielded a Ratio (HUVEC [3]) of 2.01.

`Nc1nc2c(ncn2N2C[C@H](CO)[C@H]2CO)c(=O)[nH]1` showed an EC50 (Human alphaherpesvirus 2 [4]) of 6.32 µg/mL (≈ 23.7 µM), an EC50 (Human alphaherpesvirus 1 [5]) of 5.36 µg/mL (≈ 20.1 µM) and an EC50 [6] of 0.46 µg/mL (≈ 1.73 µM).

For `Nc1ncnc2c1ncn2[C@@H]1O[C@H](CO)[C@H]1CO`, the pEC50 [7] was 5.85, the IC50 [8] was 0.5 µg/mL (≈ 1.99 µM) and the pIC50 [9] was 5.77. For the same compound, the inhibition at 5.8 µg/disc (Human alphaherpesvirus 2 [10]) was 50%, the inhibition at 132.6 microg/ml [11] was 50% and the IC50 [12] was 4.3 µg/mL (≈ 17.1 µM). It also gave an IC50 (Human betaherpesvirus 5 [13]) of 13 µg/mL, a pIC50 (Human betaherpesvirus 5 [14]) of 4.89 and an EC50 [6] of 1.4 µg/mL (≈ 5.57 µM).

`Nc1nc(Cl)nc2c1ncn2[C@@H]1O[C@H](CO)[C@H]1CO` gave a pIC50 [9] of 6.36.

For `O=C(Nc1ncnc2c1ncn2[C@@H]1O[C@H](CO)[C@H]1O)c1ccccc1`, the IC50 [12] was 5.5 µg/mL (≈ 16.1 µM).

Compound `O=c1[nH]cnc2c1ncn2[C@H]1C[C@@](F)(CO)C1` has a pIC50 [15] of 4.02 and a pIC50 [16] of 4.34.

Compound `Nc1nc(Cl)nc2c1ncn2C1CC2(C1)CC(CO)(CO)C2` has a Ratio (HUVEC [17]) of 3.59.

For `Nc1nc2c(ncn2COC(CO)CO)c(=O)[nH]1` [GANCICLOVIR], the EC50 (Murid betaherpesvirus 1) was 1 µg/mL (≈ 3.92 µM) and the EC50 (Human betaherpesvirus 5 [18]) was 0.71 µg/mL (≈ 2.78 µM).

`Nc1ncnc2c1ncn2[C@H]1C[C@@](F)(CO)C1` gave a pIC50 [15] of 5.41 and a pIC50 [16] of 5.82.

For `Nc1ncnc2c1ncn2[C@@H]1C[C@H](CO)[C@H]1CO`, the pIC50 (Hepatitis B virus) was 7.62, the EC50 (Murid betaherpesvirus 1) was 0.05 µg/mL (≈ 0.201 µM) and the pIC50 [19] was 7.52. It also gave a pIC50 (Human alphaherpesvirus 2 [4]) of 5.80, a pIC50 (Human alphaherpesvirus 1 [5]) of 5.80 and a pIC50 (Human betaherpesvirus 5 [13]) of 4.92.

In the case of `Nc1nc2c(ncn2[C@H]2C[C@@H](CO)C2)c(=O)[nH]1`, the pEC50 [19] was 5.10.

`O=c1[nH]cnc2c1ncn2[C@H]1CC[C@@H](CO)O1` [DIDANOSINE] showed an EC50 [20] of 0.46 µg/mL (≈ 1.95 µM) and an EC50 [6] of 0.46 µg/mL (≈ 1.95 µM).

Compound `Nc1nc(F)nc2c1ncn2[C@@H]1O[C@H](CO)[C@H]1CO` has a pIC50 (Human alphaherpesvirus 2 [21]) of 5.41 and a pIC50 [9] of 7.80.

With `Nc1nc(=O)c2ncn([C@@H]3C[C@H](CO)[C@H]3CO)c2[nH]1` [LOBUCAVIR] the pIC50 (Hepatitis B virus) was 6.07, the EC50 (Murid betaherpesvirus 1) was 0.1 µg/mL (≈ 0.377 µM) and the pIC50 [19] was 6.52. The pIC50 (Human alphaherpesvirus 2 [4]) was 7.10, the pIC50 (Human alphaherpesvirus 1 [5]) was 7.33 and the pIC50 (Human betaherpesvirus 5 [13]) was 6.40.

`Nc1nc2c(ncn2COCCO)c(=O)[nH]1` [ACYCLOVIR] gave an EC50 (Human alphaherpesvirus 2 [22]) of 0.18 µg/mL (≈ 0.799 µM), a pIC50 (Human alphaherpesvirus 2 [21]) of 4.92 and a pEC50 (Human alphaherpesvirus 1 [23]) of 6.70. For the same compound, the EC50 (Human alphaherpesvirus 2 [4]) was 0.39 µg/mL (≈ 1.73 µM), the EC50 (Human alphaherpesvirus 1 [5]) was 0.32 µg/mL (≈ 1.42 µM) and the pEC50 (Human alphaherpesvirus 1 [24]) was 6.70. For the same compound, the ED50 (Human alphaherpesvirus 1 [25]) was >500 mg/kg.day, the pEC50 (Human alphaherpesvirus 1 [26]) was 6.70 and the EC50 (Human alphaherpesvirus 1 [27]) was 0.41 µg/mL (≈ 1.82 µM). The ED50 (Human alphaherpesvirus 1 [28]) was >500 mg/kg.day and the EC50 (Cytomegalovirus) was 40 µg/mL (≈ 178 µM).

With `Nc1nc2c(ncn2[C@H]2C[C@@](O)(CO)C2)c(=O)[nH]1` the inhibition at 400 µM [29] was 59% and the inhibition (CEM) was < 50%.

Compound `COc1nc(N)c2ncn([C@@H]3C[C@H](CO)[C@H]3CO)c2n1` has a Ratio (HUVEC [17]) of 1.87.
